Patent US7566733B2, “Benzimidazole derivatives useful as selective androgen receptor modulators (sarms)” (priority 2004, dated 2009)

Key:
[1] = test system: castrated male Sprague Dawley rats; assay: Ventral Prostate and Seminal Vesicle Weight In Vivo Assay; settings: inhibition of testosterone-enhanced prostate weight; immature castrated rats, once daily for five days, usually orally 40 mg/kg, with testosterone propionate 2 mg/kg s.c. Also: key: active: the non weight adjusted prostate weight was ≦40 mg or the % Inhibition prostate weight, body weight adjusted was ≧40%@2 mg/day dosage; inactive: did not meet the specified criteria defined above.
Description: Ventral Prostate and Seminal Vesicle Weight In Vivo Assay
Immature (approximately 50 g) castrated male Sprague Dawley rats (Charles River) were treated once daily for five days with test compound (usually given orally at 40 mg/kg in a volume of 0.3 mL, in 30% cyclodextrin or 0.5% methylcellulose vehicle) and with testosterone propionate (given subcutaneously by injection at the nape of the neck at 2 mg/kg, in a volume of 0.1 mL in sesame oil). On the sixth day, the rats were euthanized by asphyxiation in carbon dioxide. Ventral prosatates and seminal vesicles were removed and their wet weights determined. Test compound activity was determined as the percent inhibition of testosterone-enhanced tissue weights, with a vehicle-treated control group set to zero percent and a testosterone alone-treated control group set to 100%.
Representative compounds of the present invention were tested according to the procedure described, with results as listed in Table 7 below. A test compound is listed as “active” if the non weight adjusted prostate weight was ≦40 mg or the % Inhibition prostate weight, body weight adjusted was ≧40%@2 mg/day dosage. ID50's, if determined, of ≦15 mg/day also indicated an “active” compound.

[2] = test system: castrated male Sprague Dawley rats; assay: Ventral Prostate and Levator Ani Weight In Vivo Assay; parameters: key: active: greater than or equal to 25% stimulation of levator ani at 30 mg/kg; settings: mature castrated rats, once daily for 14 days, oral gavage, 30 mg/kg
Description: Ventral Prostate and Levator Ani Weight In Vivo Assay
Mature (150 to 200 g) castrated male Sprague Dawley rats (Charles River) were treated once daily for 14 days with test compound (usually administered by oral gavage at up to the desired dosage, up to 30 mg/kg in a volume of 1 mL, in 30% cyclodextrin or 0.5% methylcellulose vehicle), or with testosterone propionate (administered subcutaneously by injection at the nape of the neck at 5 mg/kg, in a volume of 0.1 mL in sesame oil), or with vehicle (1 mL of 30% cyclodextrin or 0.5% methylcellulose, given orally). On the fifteenth day, the rats were euthanized by asphyxiation in carbon dioxide. Ventral prostates and levator ani muscles were removed and their wet weights determined.
Test compound activity was determined as the percent stimulation of tissue weight, with the vehicle-treated control group set to zero percent and the testosterone alone-treated control group set to 100%. A compound was designated as “active” if it produced greater than or equal to 25% stimulation of levator ani at 30 mg/kg.

## CC(O)(CC#N)c1nc2cc(Cl)c(Cl)cc2[nH]1 (stereo not drawn) [Compound 7, 3-(5,6-dichloro-1H-benzoimidazol-2-yl)-3-hydroxy-butyronitrile]
[1]
  Activity: active
[2]
  Activity (percent stimulation of levator ani weight): active

## FC(F)(F)Cc1nc2cc(Cl)c(Cl)cc2n1CCOc1ccc(Cl)cc1 [Compound 124, 5,6-Dichloro-1-[2-(4-chloro-phenoxy)-ethyl]-2-(2,2,2-trifluoro-ethyl)-1H-benzoimidazole]
[1]
  Activity: active

## FC(F)(F)Cc1nc2cc(Cl)c(Cl)cc2n1Cc1ccccc1Cl [Compound 125, 5,6-Dichloro-1-(2-chloro-benzyl)-2-(2,2,2-trifluoro-ethyl)-1H-benzoimidazole]
[1]
  Activity: active

## Cc1onc(-c2ccccc2)c1C(=O)Cn1c(CC(F)(F)F)nc2cc(Cl)c(Cl)cc21 [Compound 126, 2-[5,6-Dichloro-2-(2,2,2-trifluoro-ethyl)-benzoimidazol-1-yl]-1-(5-methyl-3-phenyl-isoxazol-4-yl)-ethanone]
[1]
  Activity: inactive

## Cc1cc2[nH]c(C(O)C(F)(F)F)nc2cc1Cl (stereo not drawn) [Compound 128, 1-(5-Chloro-6-methyl-1H-benzoimidazol-2-yl-)2,2,2-trifluoro-ethanol]
[1]
  Activity: inactive

## COc1cccc(Cn2c(CC(F)(F)F)nc3cc(Cl)c(Cl)cc32)c1 [Compound 129, 5,6-Dichloro-1-(3-methoxy-benzyl)-2-(2,2,2-trifluoro-ethyl)-1H-benzoimidazole]
[1]
  Activity: inactive

## FC(F)(F)Cc1nc2cc(Cl)c(Cl)cc2n1Cc1ccc(-n2cccn2)cc1 [Compound 131, 5,6-Dichloro-1-(4-pyrazol-1-yl-benzyl)-2-(2,2,2-trifluoro-ethyl)-1H-benzoimidazole]
[1]
  Activity: inactive

## FC(F)(F)Cc1nc2cc(Cl)c(Cl)cc2n1Cc1ccc(-c2csnn2)cc1 [Compound 132, 5,6-Dichloro-1-(4-[1,2,3]thiadiazol-4-yl-benzyl)-2-(2,2,2-trifluoro-ethyl)-1H-benzoimidazole]
[1]
  Activity: inactive

## Cc1oncc1Cn1c(CC(F)(F)F)nc2cc(Cl)c(Cl)cc21 [Compound 133, 5,6-Dichloro-1-(5-methyl-isoxazol-4-ylmethyl)-2-(2,2,2-trifluoro-ethyl)-1H-benzoimidazole]
[1]
  Activity: active

## FC(F)(F)Cc1nc2cc(Cl)c(Cl)cc2n1Cc1cccc(OC(F)(F)F)c1 [Compound 134, 5,6-Dichloro-2-(2,2,2-trifluoro-ethyl)-1-(3-trifluoromethoxy-benzyl)-1H-benzoimidazole]
[1]
  Activity: inactive

## N#Cc1cc2nc(C(O)C(F)(F)F)[nH]c2cc1C(F)(F)F (stereo not drawn) [Compound 135, 2-(2,2,2-Trifluoro-1-hydroxy-ethyl)-6-trifluoromethyl-1H-benzoimdazole-5-carbonitrile]
[1]
  Activity: inactive

## N#Cc1ccc(OCCn2c(CC(F)(F)F)nc3cc(Cl)c(Cl)cc32)cc1 [Compound 136, 4-{2-[5,6-Dichloro-2-(2,2,2-trifluoro-ethyl)-benzoimidazol-1-yl]-ethoxy}-benzonitrile]
[1]
  Activity: active

## O=[N+]([O-])c1ccccc1Cn1c(CC(F)(F)F)nc2cc(Cl)c(Cl)cc21 [Compound 137, 5,6-Dichloro-1-(2-nitro-benzyl)-2-(2,2,2-trifluoro-ethyl)-1H-benzoimidazole]
[1]
  Activity: active

## FC(F)(F)Cc1nc2cc(Cl)c(Cl)cc2n1Cc1ccc(-n2cccc2)cc1 [Compound 138, 5,6-Dichloro-1-(4-pyrrol-1-yl-benzyl)-2-(2,2,2-trifluoro-ethyl)-1H-benzoimidazole]
[1]
  Activity: active

## O=[N+]([O-])c1cccc(Cn2c(CC(F)(F)F)nc3cc(Cl)c(Cl)cc32)c1 [Compound 139, 5,6-Dichloro-1-(3-nitro-benzyl)-2-(2,2,2-trifluoro-ethyl)-1H-benzoimidazole]
[1]
  Activity: active

## FC(F)(F)Cc1nc2cc(Cl)c(Cl)cc2n1Cc1ccc(SC(F)(F)F)cc1 [Compound 140, 5,6-Dichloro-2-(2,2,2-trifluoro-ethyl)-1-(4-trifluoromethvlsulfanvl-benzvl)-1H-benzoimidazole]
[1]
  Activity: inactive

## CS(=O)(=O)c1ccc(Cn2c(CC(F)(F)F)nc3cc(Cl)c(Cl)cc32)cc1 [Compound 142, 5,6-Dichloro-1-(4-methanesulfonyl-benzyl)-2-(2,2,2-trifluoro-ethyl)-1H-benzoimidazole]
[1]
  Activity: inactive

## CC/C(Cn1c(CC(F)(F)F)nc2cc(Cl)c(Cl)cc21)=N/O [Compound 144, 1-[5,6-Dichloro-2-(2,2,2-trifluoro-ethyl)-benzoimidazol-1-yl]-butan-2-one Oxime]
[1]
  Activity: active

## FC(F)(F)Cc1nc2cc(Cl)c(Cl)cc2n1Cc1ccc(OCc2ccccc2)cc1 [Compound 146, 1-(4-Benzyloxy-benzyl)-5,6-dichloro-2-(2,2,2-trifluoro-ethyl)-1H-benzoimidazole]
[1]
  Activity: active

## COc1ccc(Cn2c(CC(F)(F)F)nc3cc(Cl)c(Cl)cc32)cc1 [Compound 147, 5,6-Dichloro-1-(4-methoxy-benzyl)-2-(2,2,2-trifluoro-ethyl)-1H-benzoimidazole]
[1]
  Activity: active

## CCC(O)Cn1c(CC(F)(F)F)nc2cc(Cl)c(Cl)cc21 (stereo not drawn) [Compound 148, 1-[5,6-Dichloro-2-(2,2,2-trifluoro-ethyl)-benzoimidazol-1-yl]-butan-2-ol]
[1]
  Activity: active

## FC(F)(F)Cc1nc2cc(Cl)c(Cl)cc2n1Cc1ccc(Br)cc1 [Compound 149, 1-(4-Bromo-benzyl)-5,6-dichloro-2-(2,2,2-trifluoro-ethyl)-1H-benzoimidazole]
[1]
  Activity: active

## CCOC(=O)c1ccc(Cn2c(CC(F)(F)F)nc3cc(Cl)c(Cl)cc32)cc1 [Compound 150, 4-[5,6-Dichloro-2-(2,2,2-trifluoro-ethyl)-benzoimidazol-1-ylmethyl]-benzoic Acid Ethyl Ester]
[1]
  Activity: active

## FC(F)(F)Cc1nc2cc(Cl)c(Cl)cc2n1Cc1ccccc1Br [Compound 151, 1-(2-Bromo-benzyl)-5,6-dichloro-2-(2,2,2-trifluoro-ethyl)-1H-benzoimidazole]
[1]
  Activity: active

## FC(c1nc2cc(Cl)c(Cl)cc2[nH]1)C(F)(F)F (stereo not drawn) [Compound 152, 5,6-Dichloro-2-(1,2,22-tetrafluoro-ethyl)-1H-benzoimidazole]
[1]
  Activity: active

## O=Cc1ccc(Cn2c(CC(F)(F)F)nc3cc(Cl)c(Cl)cc32)cc1 [Compound 153, 4-[5,6-Dichloro-2-(trifluoro-ethyl)-benzoimidazol-1-ylmethyl]-benzaldehyde]
[1]
  Activity: inactive

## FC(F)(F)C(F)(F)c1nc2cc(Cl)c(Cl)cc2[nH]1 [Compound 154, 5,6-Dichloro-2-(pentafluoroethyl)-1H-benzoimidazole]
[1]
  Activity: inactive

## O=[N+]([O-])c1cc2nc(C(O)C(F)(F)F)[nH]c2cc1[N+](=O)[O-] (stereo not drawn) [Compound 155, 1-(5,6-Dinitro-1H-benzoimidazol-2-yl-)2,2,2-trifluoro-ethanol]
[1]
  Activity: inactive

## OC(c1nc2cc(Cl)ccc2[nH]1)C(F)(F)F (stereo not drawn) [Compound 156, 1-(5-1H-benzoimidazol-2-yl-)2,2,2-trifluoro-ethanol]
[1]
  Activity: inactive

## COc1cc2nc(C(O)C(F)(F)F)[nH]c2cc1OC (stereo not drawn) [Compound 157, 1-(5,6-Dimethoxy-1H-benzoimidazol-2-yl-)2,2,2-trifluoro-ethanol]
[1]
  Activity: inactive

## O=C(c1nc2cc(Cl)c(F)cc2[nH]1)C(F)(F)F [Compound 159, 1-(5-Chloro-6-fluoro-1H-benzoimidazol-2-yl-)2,2,2-trifluoro-ethanone]
[1]
  Activity: active

## Cc1cc2[nH]c(C(=O)C(F)(F)F)nc2cc1Cl [Compound 160, 1-(5-Chloro-6-methyl-1H-benzoimidazol-2-yl-)2,2,2-trifluoro-ethanone]
[1]
  Activity: active
